Peptide text beside a SMILES is read from it.
Test: Body weight and normal-side kidney weight of tumor-bearing nude mice (toxic side effects)
Conditions: for Body weight of tumor-bearing nude mice: mean ± SEM; for Body weight, End / Relative body weight, End / Kidney weight on normal side / Body weight, Start / Relative body weight, Start: mean±SEM; for Renal weight/body mass index on normal side / Kidney weight on normal side: left kidney, end of experiment
Source text: Three days after the surgical modeling, the tumor-bearing mice were imaged with IVIS Spectrum CT in vivo, and the tumor-bearing mice were randomized over groups of 10 mice according to the luminescence intensity in the software analysis results.
Animals were observed daily and weighed every other day. Luminescence was detected with four times of in vivo imaging at day 1 (i.e., 3 days after surgical modeling), day 6, day 12 and day 15 from the experimental grouping. The time of in vivo imaging for luminescence detection was adjusted according to the survival and physical condition of the animals. At the end of the experiment (day 16) the animals were executed by neck dislocation, the kidney tissue and tumor masses was isolated for weighing and photographing, and the tumor masses were preserved in 4% formaldehyde solution for routine pathological testing.
The statistical analysis between groups was one-way ANOVA and Tukey’s test for pairwise comparison, and the statistical analysis between groups at different time points was two-way ANOVA and Bonferroni test for pairwise comparison.

## CSCC[C@H](NC(=O)CNC(=O)CNC(=O)[C@H](CO)NC(=O)[C@H](CC(C)C)NC(=O)[C@@H]1CCCN1C(=O)[C@H](CO)NC(=O)[C@H](CC(N)=O)NC(=O)[C@H](CC(C)C)NC(=O)[C@H](C)NC(=O)[C@@H](NC(=O)[C@H](CC(C)C)NC(=O)[C@H](Cc1c[nH]cn1)NC(=O)[C@H](CC(C)C)NC(=O)[C@@H](NC(=O)[C@@H]1CCCN1C(=O)[C@H](CCC(N)=O)NC(=O)[C@H](Cc1ccccc1)NC(=O)[C@H](CC(=O)O)NC(=O)[C@H](CCCNC(=N)N)NC(=O)[C@H](Cc1c[nH]cn1)NC(=O)[C@H](CO)NC(=O)[C@H](Cc1c[nH]cn1)NC(=O)[C@H](CCSC)NC(=O)[C@H](CC(=O)O)NC(=O)CNC(=O)[C@H](CCCNC(=N)N)NC(=O)[C@H](CC(=O)O)NC(=O)CNC(=O)[C@@H](N)CCCNC(=N)N)C(C)C)C(C)C)C(=O)O [HYD-PEP06] (H-RGDRGDMHSHRDFQPVLHLVALNSPLSGGM-OH)
5 mg/kg i.v. once a day, Day 1
  Body weight of tumor-bearing nude mice: 20.8 ± 0.6 g
5 mg/kg i.v. once a day, Day 4
  Body weight of tumor-bearing nude mice: 21.8 ± 0.6 g
5 mg/kg i.v. once a day, Day 7
  Body weight of tumor-bearing nude mice: 21.2 ± 0.6 g
5 mg/kg i.v. once a day, Day 10
  Body weight of tumor-bearing nude mice: 20.9 ± 0.5 g
5 mg/kg i.v. once a day, Day 13
  Body weight of tumor-bearing nude mice: 21.1 ± 0.4 g
5 mg/kg i.v. once a day, Day 16
  Body weight of tumor-bearing nude mice: 21.0 ± 0.4 g
5 mg/kg i.v. x15
  Body weight, End: 21.0 ± 0.4 g
  Relative body weight, End: 101.6 ± 1.9%
  Renal weight/body mass index on normal side: 0.85+0.01%
  Kidney weight on normal side: 0.178 ± 0.003 g
  Body weight, Start: 20.8 ± 0.6 g
  Relative body weight, Start: 100.0±0.0%
10 mg/kg i.v. once a day, Day 1
  Body weight of tumor-bearing nude mice: 20.2 ± 0.4 g
10 mg/kg i.v. once a day, Day 4
  Body weight of tumor-bearing nude mice: 21.9 ± 0.3 g
10 mg/kg i.v. once a day, Day 7
  Body weight of tumor-bearing nude mice: 21.1 ± 0.3 g
10 mg/kg i.v. once a day, Day 10
  Body weight of tumor-bearing nude mice: 21.2 ± 0.3 g
10 mg/kg i.v. once a day, Day 13
  Body weight of tumor-bearing nude mice: 21.3 ± 0.2 g
10 mg/kg i.v. once a day, Day 16
  Body weight of tumor-bearing nude mice: 21.0 ± 0.4 g
10 mg/kg i.v. x15
  Body weight, End: 21.0 ± 0.4 g
  Relative body weight, End: 104.0±2.2%
  Renal weight/body mass index on normal side: 0.85±0.02%
  Kidney weight on normal side: 0.178 ± 0.006 g
  Body weight, Start: 20.2 ± 0.4 g
  Relative body weight, Start: 100.0±0.0%
20 mg/kg i.v. once a day, Day 1
  Body weight of tumor-bearing nude mice: 20.3 ± 0.4 g
20 mg/kg i.v. once a day, Day 4
  Body weight of tumor-bearing nude mice: 21.6 ± 0.4 g
20 mg/kg i.v. once a day, Day 7
  Body weight of tumor-bearing nude mice: 20.9 ± 0.5 g
20 mg/kg i.v. once a day, Day 10
  Body weight of tumor-bearing nude mice: 20.9 ± 0.5 g
20 mg/kg i.v. once a day, Day 13
  Body weight of tumor-bearing nude mice: 21.3 ± 0.6 g
20 mg/kg i.v. once a day, Day 16
  Body weight of tumor-bearing nude mice: 21.3 ± 0.6 g
20 mg/kg i.v. x15
  Body weight, End: 21.3 ± 0.6 g
  Relative body weight, End: 104.9±3.3%
  Renal weight/body mass index on normal side: 0.86+0.01%
  Kidney weight on normal side: 0.182 ± 0.005 g
  Body weight, Start: 20.3 ± 0.4 g
  Relative body weight, Start: 100.0±0.0%
5, 10, 20 mg/kg i.v. x15
  Kidney weight, kidney weight/body mass index in the normal side (left side) and body weight vs model control group: No significant differences
At the effective dose (5-20 mg/kg i.v. x15)
  Toxic side effects: did not show significant toxic side effects
